Target: Factor D (Homo sapiens (Human), UniProt P00746)
Assay: biochemical
Assay type: biochemical
Conditions: read-out: IC50

Factor D, sequence (P00746 26-253): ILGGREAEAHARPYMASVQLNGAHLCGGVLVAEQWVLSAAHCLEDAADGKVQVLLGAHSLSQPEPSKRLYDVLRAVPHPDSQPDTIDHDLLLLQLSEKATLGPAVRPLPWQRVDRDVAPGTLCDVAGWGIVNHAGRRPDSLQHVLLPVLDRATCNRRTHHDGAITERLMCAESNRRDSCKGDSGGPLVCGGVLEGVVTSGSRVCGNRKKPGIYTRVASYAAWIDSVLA

| SMILES | IC50 |
| --- | --- |
| CC1(C)CC[C@@H](C(=O)NCc2cccc(Cl)c2F)N1C(=O)Nc1cn(C(N)=O)c2ccccc12 [Example 302, (S)-5,5-Dimethyl-pyrrolidine-1,2-dicarboxylic acid 1-[(1-carbamoyl-1H-indol-3-yl)-amide] 2-(3-chloro-2-fluoro-benzylamide)] | 75 nM |
| COCCOc1ccc2c(c1)c(NC(=O)N1C[C@H](F)C[C@H]1C(=O)NCc1cccc(Cl)c1F)cn2C(N)=O [Example 303, (2S,4R)-4-Fluoro-pyrrolidine-1,2-dicarboxylic acid 1-{[1-carbamoyl-5-(2-methoxy-ethoxy)-1H-indol-3-yl]-amide} 2-(3-chloro-2-fluoro-benzylamide)] | 8 nM |
| Cc1ccnc(CNC(=O)[C@@H]2C[C@@H](F)CN2C(=O)Nc2cn(C(N)=O)c3ccccc23)c1F [Example 304, (2S,4R)-4-Fluoro-pyrrolidine-1,2-dicarboxylic acid 1-[(1-carbamoyl-1H-indol-3-yl)-amide] 2-[(3-fluoro-4-methyl-pyridin-2-ylmethyl)-amide]] | 653 nM |
| NC(=O)n1cc(NC(=O)N2C[C@H](F)C[C@H]2C(=O)NCc2cncc(C(F)(F)F)c2)c2ccccc21 [Example 305, (2S,4R)-4-Fluoro-pyrrolidine-1,2-dicarboxylic acid 1-[(1-carbamoyl-1H-indol-3-yl)-amide] 2-[(5-trifluoromethyl-pyridin-3-ylmethyl)-amide]] | 1350 nM |
| CCOC(=O)Cc1ccc2c(c1)c(NC(=O)N1[C@@H]3C[C@@H]3C[C@H]1C(=O)NCc1cccc(Cl)c1F)cn2C(N)=O [Example 306, (1-carbamoyl-3-{[(1R,3S,5R)-3-(3-chloro-2-fluoro-benzylcarbamoyl)-2-aza-bicyclo[3.1.0]hexane-2-carbonyl]-amino}-1H-indol-5-yl)-acetic acid ethyl ester] | 4 nM |
| NC(=O)n1cc(NC(=O)N2CCC3C[C@@]32C(=O)Nc2cccc(OC(F)(F)F)c2)c2ccccc21 (stereo partly drawn) [Example 307, (1S,5R)-2-Aza-bicyclo[3.1.0]hexane-1,2-dicarboxylic acid 2-[(1-carbamoyl-1H-indol-3-yl)-amide] 1-[(3-trifluoromethoxy-phenyl)-amide]] | 13300 nM |
| NC(=O)n1cc(NC(=O)N2C[C@H](F)C[C@H]2C(=O)NCc2cccc(Cl)c2F)c2ccc(OC(F)F)cc21 [Example 308, (2S,4R)-4-Fluoro-pyrrolidine-1,2-dicarboxylic acid 1-[(1-carbamoyl-6-difluoromethoxy-1H-indol-3-yl)-amide] 2-(3-chloro-2-fluoro-benzylamide)] | 127 nM |
| COc1cc(NC(=O)[C@@H]2C[C@@H](F)CN2C(=O)Nc2cn(C(N)=O)c3ccccc23)ccn1 [Example 309, (2S,4R)-4-Fluoro-pyrrolidine-1,2-dicarboxylic acid 1-[(1-carbamoyl-1H-indol-3-yl)-amide] 2-[(2-methoxy-pyridin-4-yl)-amide]] | 550 nM |
| NC(=O)n1cc(NC(=O)N2CCS[C@H]2C(=O)Nc2cncc(Cl)c2)c2ccccc21 [Example 310, (S)-Thiazolidine-2,3-dicarboxylic acid 3-[(1-carbamoyl-1H-indol-3-yl)-amide] 2-[(5-chloro-pyridin-3-yl)-amide]] | 475 nM |
| C=CCOc1ccc2c(NC(=O)N3C4CC4C[C@H]3C(=O)NCc3cccc(Cl)c3F)cn(C(N)=O)c2c1 (stereo partly drawn) [Example 311, (1R,3S,5R)-2-Aza-bicyclo[3.1.0]hexane-2,3-dicarboxylic acid 2-[(6-allyloxy-1-carbamoyl-1H-indol-3-yl)-amide] 3-(3-chloro-2-fluoro-benzylamide)] | 70 nM |
| NC(=O)n1cc(NC(=O)N2C[C@@H](CO)C[C@H]2C(=O)NCc2cccc(Cl)c2F)c2ccccc21 [Example 312, (2S,4S)-4-Hydroxymethyl-pyrrolidine-1,2-dicarboxylic acid 1-[(1-carbamoyl-1H-indol-3-yl)-amide] 2-(3-chloro-2-fluoro-benzylamide)] | 115 nM |
| NC(=O)n1cc(NC(=O)N2CCC[C@H]2C(=O)Nc2cccc(OC(F)(F)F)c2)c2ccc(OCc3ccccc3)cc21 [Example 313, (S)-Pyrrolidine-1,2-dicarboxylic acid 1-[(6-benzyloxy-1-carbamoyl-1H-indol-3-yl)-amide]2-[(3-trifluoromethoxy-phenyl)-amide]] | 1300 nM |
| CN(C)C[C@@H](NC(=O)[C@@H]1C[C@H]2C[C@H]2N1C(=O)Nc1cn(C(N)=O)c2ccccc12)c1cccc(Cl)c1F [Example 314, (1R,3S,5R)-2-Aza-bicyclo[3.1.0]hexane-2,3-dicarboxylic acid 2-[(1-carbamoyl-1H-indol-3-yl)-amide] 3-{[(S)-1-(3-chloro-2-fluoro-phenyl)-2-dimethylamino-ethyl]-amide}] | 20 nM |
| CCOC(=O)Cc1ccc2c(NC(=O)N3[C@@H]4C[C@@H]4C[C@H]3C(=O)NCc3cccc(Cl)c3F)cn(C(N)=O)c2c1 [Example 315, (1-carbamoyl-3-{[(1R,3S,5R)-3-(3-chloro-2-fluoro-benzylcarbamoyl)-2-aza-bicyclo[3.1.0]hexane-2-carbonyl]-amino}-1H-indol-6-yl)-acetic acid ethyl ester] | 13 nM |
| CO[C@@H]1C[C@@H](C(=O)Nc2cccc(OC(F)(F)F)c2)N(C(=O)Nc2cn(C(N)=O)c3ccccc23)C1 [Example 316, (2S,4R)-4-Methoxy-pyrrolidine-1,2-dicarboxylic acid 1-[(1-carbamoyl-1H-indol-3-yl)-amide] 2-[(3-trifluoromethoxy-phenyl)-amide]] | 3100 nM |
| CC(C)(C)c1cc(NC(=O)[C@@H]2C[C@@H](F)CN2C(=O)Nc2cn(C(N)=O)c3ccccc23)ccn1 [Example 317, (2S,4R)-4-Fluoro-pyrrolidine-1,2-dicarboxylic acid 2-[(2-tert-butyl-pyridin-4-yl)-amide] 1-[(1-carbamoyl-1H-indol-3-yl)-amide]] | 2800 nM |
| COC(=O)COc1ccc2c(c1)c(NC(=O)N1C[C@](C)(F)C[C@H]1C(=O)NCc1cccc(Cl)c1F)cn2C(N)=O [Example 318, (1-carbamoyl-3-{[(2S,4R)-2-(3-chloro-2-fluoro-benzylcarbamoyl)-4-fluoro-4-methyl-pyrrolidine-1-carbonyl]amino}-1H-indol-5-yloxy)-acetic acid methyl ester] | 3 nM |
| NC(=O)n1cc(NC(=O)N2C[C@H](F)C[C@H]2C(=O)N[C@H](c2cccc(Cl)c2)C(F)(F)F)c2ccccc21 [Example 319, (2S,4R)-4-Fluoro-pyrrolidine-1,2-dicarboxylic acid 1-[(1-carbamoyl-1H-indol-3-yl)-amide] 2-{[(R)-1-(3-chloro-phenyl)-2,2,2-trifluoro-ethyl]-amide}] | 548 nM |
| NC(=O)n1cc(NC(=O)N2[C@@H]3C[C@@H]3C[C@H]2C(=O)N[C@H](CO)c2cccc(Cl)c2)c2ccccc21 [Example 320, (1R,3S,5R)-2-Aza-bicyclo[3.1.0]hexane-2,3-dicarboxylic acid 2-[(1-carbamoyl-1H-indol-3-yl)-amide] 3-{[(S)-1-(3-chloro-phenyl)-2-hydroxy-ethyl]-amide}] | 7 nM |
| NC(=O)n1cc(NC(=O)N2CCS[C@H]2C(=O)Nc2cncc(Br)c2)c2ccccc21 [Example 321, (S)-Thiazolidine-2,3-dicarboxylic acid 3-[(1-carbamoyl-1H-indol-3-yl)-amide] 2-[(5-bromo-pyridin-3-yl)-amide]] | 85 nM |

Reference: patent US9085555B2, “Complement pathway modulators and uses thereof” (priority 2011, dated 2015)
